Results as given in PMC4832382, “GacA is essential for Group A S treptococcus and defines a new class of monomeric dTDP‐4‐dehydrorhamnose reductases (RmlD)” (Molecular Microbiology, 2015).

Key:
[1] = target: T1, GacA (dTDP-4-dehydrorhamnose reductase, RmlD) (Streptococcus pyogenes, UniProt Q9A0G6); assay: SPR (Biacore T200), equilibrium fit, […]°C; assay type: binding
T1 construct: full-length gacA (AAZ51220.1; M5005_Spy_0602), chemically biotinylated

[2] = target: the molecule itself; assay: SEC; size-exclusion chromatography of purified wild-type SeRmlD and triple mutant, retention compared with GacA

T1 sequence (Q9A0G6 entry or part of it): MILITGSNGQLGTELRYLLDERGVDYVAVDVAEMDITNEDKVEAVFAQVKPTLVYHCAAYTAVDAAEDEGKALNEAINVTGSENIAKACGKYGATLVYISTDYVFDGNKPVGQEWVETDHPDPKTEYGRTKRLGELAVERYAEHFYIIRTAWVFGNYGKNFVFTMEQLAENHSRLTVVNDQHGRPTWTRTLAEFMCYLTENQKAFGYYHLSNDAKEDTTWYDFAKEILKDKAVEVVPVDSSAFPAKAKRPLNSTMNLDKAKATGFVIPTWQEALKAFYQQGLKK

Row | Molecule | Kd [1] [µM] | stoichiometry N [2]
1 | NC(=O)C1=CN([C@@H]2O[C@H](COP(=O)(O)OP(=O)(O)OC[C@H]3O[C@@H](n4cnc5c(N)ncnc54)[C@H](O)[C@@H]3O)[C@@H](O)[C@H]2O)C=CC1 [NADH] | 110 | 
2 | NC(=O)C1=CN([C@@H]2O[C@H](COP(=O)(O)OP(=O)(O)OC[C@H]3O[C@@H](n4cnc5c(N)ncnc54)[C@H](OP(=O)(O)O)[C@@H]3O)[C@@H](O)[C@H]2O)C=CC1 [NADPH] | 390 | 
3 | RmlD (dTDP-4-dehydrorhamnose reductase) from Salmonella enterica serovar Typhimurium, wild type (enzyme, Salmonella enterica (LT2), UniProt P26392 1-299, looked up, RmlD, Salmonella enterica serovar Typhimurium LT2, full-length rmlD (GI 16420628); also called SeRmlD; wild-type SeRmlD; source: E. coli BL21(DE3), expressed and purified as described for GacA; not shown: His6, N-terminal, cleaved; GST, N-terminal, cleaved) MNILLFGKTGQVGWELQRSLAPVGNLIALDVHSKEFCGDFSNPKGVAETVRKLRPDVIVNAAAHTAVDKAESEPELAQLLNATSVEAIAKAANETGAWVVHYSTDYVFPGTGDIPWQETDATSPLNVYGKTKLAGEKALQDNCPKHLIFRTSWVYAGKGNNFAKTMLRLAKERQTLSVINDQYGAPTGAELLADCTAHAIRVALNKPEVAGLYHLVAGGTTTWHDYAALVFDEARKAGITLALTELNAVPTSAYPTPASRPGNSRLNTEKFQRNFDLILPQWELGVKRMLTEMFTTTTI |  | 2
